For twelve molecules, TGI and GI50 results are on record in PubChem BioAssay (NCI).

The term TGI denotes the concentration giving total growth inhibition. As a reminder, the GI50 is the concentration that inhibits growth by half.

Among the test systems are NCI-H226 lung; NCI-H522 lung; LOX IMVI melanoma; A498 renal; OVCAR-4 ovarian; COLO 205 colon; 786-0 renal; K-562 leukemia; HS 578T breast; EKVX NSCLC; HCT-15 colon.
Holding throughout (experiment): DTP human tumour cell line panel, 48 h

Where “and” joins values, the source holds several entries; their conditions need not be identical. Equal values may be shown once.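 Each compound was tested at five concentrations against cells in 96-well plates for 48 hours. GI50 marks 50% less growth. TGI marks complete inhibition of growth.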

As to `CN(CCN)[C@H](CSSC[C@@H](c1ccccc1O)N(C)CCN)c1ccccc1O`, the concentration for total growth inhibition (TGI) in the test with NCI-H226 lung was 35.4 µM; with NCI-H522 lung, 33 µM; in the test with LOX IMVI melanoma it was 28.5 µM; with A498 renal it was 39.2 µM; with OVCAR-4 ovarian, 34 µM; in the test on COLO 205 colon it was more than 53.6 µM. Further, the TGI was 32.6 µM in the test with 786-0 renal; 24.3 µM with K-562 leukemia; 49.9 µM in the test with HS 578T breast; 23.9 µM with EKVX NSCLC; 18.6 µM in the test on HCT-15 colon.
In the case of `Cc1cccc2c(=O)c3c(O)cc(O)cc3n(C)c12`, the TGI is more than 100 µM in the test on NCI-H226 lung; more than 100 µM in the test on NCI-H522 lung; more than 100 µM with LOX IMVI melanoma; 98.7 µM in the test on A498 renal; more than 100 µM in the test with OVCAR-4 ovarian; more than 100 µM in the test on COLO 205 colon. The TGI in the test with 786-0 renal, in the test with K-562 leukemia, with HS 578T breast, in the test on EKVX NSCLC and in the test on HCT-15 colon was more than 100 µM each time.
As for `CC(=O)OC1CCn2c1nc1cc([N+](=O)[O-])c(C)cc12` (stereo not drawn), the TGI in the test on NCI-H226 lung, in the test with NCI-H522 lung, in the test on LOX IMVI melanoma, in the test on A498 renal, with OVCAR-4 ovarian and in the test with COLO 205 colon was more than 100 µM in each case. Besides, the TGI with 786-0 renal, in the test with K-562 leukemia, in the test with HS 578T breast, with EKVX NSCLC and with HCT-15 colon was more than 100 µM each time.
In the case of `CCOC(=O)C1=C(O)CC(=O)N=C1N1CCCC1`, the TGI with NCI-H226 lung, in the test on NCI-H522 lung, with LOX IMVI melanoma, with A498 renal, in the test with OVCAR-4 ovarian and in the test with COLO 205 colon was more than 100 µM throughout. In addition, the TGI with 786-0 renal, in the test with K-562 leukemia, with HS 578T breast, in the test with EKVX NSCLC and in the test with HCT-15 colon was more than 100 µM throughout.
With `O=C1c2cc3c(cc2NC(c2ccccc2F)C1O)OCO3` (stereo not drawn), the TGI in the test on NCI-H226 lung is more than 64.7 µM; in the test with NCI-H522 lung, 34.4 µM; in the test with LOX IMVI melanoma, more than 100 µM; with A498 renal, 58.1 µM; with OVCAR-4 ovarian, more than 84.9 µM; with COLO 205 colon, more than 39.8 µM. The TGI with 786-0 renal was 48.1 µM; in the test on K-562 leukemia, more than 100 µM; in the test on HS 578T breast it was 48.2 µM; in the test on EKVX NSCLC it was more than 70.8 µM; in the test with HCT-15 colon, more than 100 µM.
Turning to `CC(=O)c1csc2c1C(=O)c1ccccc1C2=O`, the TGI in the test on NCI-H226 lung is 3.42 µM; in the test with NCI-H522 lung, 4.1 µM; in the test on LOX IMVI melanoma, 31.3 µM; with A498 renal it was more than 100 µM; in the test with OVCAR-4 ovarian, 18.3 µM; in the test on COLO 205 colon, 3.62 µM. In addition, the TGI was more than 22.3 µM with 786-0 renal; more than 100 µM in the test with K-562 leukemia; 7.11 µM in the test with HS 578T breast; 18.6 µM with EKVX NSCLC; 10.3 µM with HCT-15 colon.
Regarding `COC(=O)/C=C(C)/C=C\COC1CCCCO1` (stereo not drawn), the TGI in the test with NCI-H226 lung, in the test with NCI-H522 lung, with LOX IMVI melanoma, in the test with A498 renal, with OVCAR-4 ovarian and with COLO 205 colon was more than 100 µM each time. For the same molecule, the TGI with 786-0 renal, with K-562 leukemia, in the test with HS 578T breast, in the test on EKVX NSCLC and with HCT-15 colon was more than 100 µM each time.
Take `COC(=O)c1ccccc1CC1Cc2c(C)ccc(C)c2C1=O` (stereo not drawn): the TGI with NCI-H226 lung was more than 100 µM; with NCI-H522 lung it was 58.1 µM; with LOX IMVI melanoma, 37.4 µM; with A498 renal, 71 µM; in the test with OVCAR-4 ovarian it was more than 100 µM; with COLO 205 colon, 34.3 µM. Further, the TGI in the test on 786-0 renal, in the test with K-562 leukemia, in the test on HS 578T breast, in the test on EKVX NSCLC and in the test on HCT-15 colon was more than 100 µM in each case.
Take `CNC(=O)[C@H](Cc1ccccc1)NC(=O)N(CCC#N)CCN(C(=O)N[C@@H](Cc1ccccc1)C(=O)OC)c1ccccc1`: the TGI in the test with NCI-H226 lung, in the test with NCI-H522 lung, in the test with LOX IMVI melanoma, in the test with A498 renal, in the test on OVCAR-4 ovarian and in the test with COLO 205 colon was more than 100 µM throughout. For the same molecule, the TGI with 786-0 renal, with K-562 leukemia, in the test with HS 578T breast, in the test on EKVX NSCLC and in the test with HCT-15 colon was more than 100 µM in each case.
In the case of `CC(C)=CCC[C@@H](C)C1=C(O)C(N[C@H](C)c2ccccc2)=C(C)C(=O)C1=O`, the TGI is 21.1 µM with NCI-H226 lung; 8.67 µM in the test with NCI-H522 lung; 22.1 µM in the test on LOX IMVI melanoma; 32 µM with A498 renal; more than 60.1 µM in the test with OVCAR-4 ovarian; 20 µM in the test on COLO 205 colon. Further, the TGI was 20.7 µM in the test with 786-0 renal; more than 60.7 µM in the test with K-562 leukemia; 36.7 µM with HS 578T breast; more than 100 µM in the test on EKVX NSCLC; more than 63.2 µM in the test with HCT-15 colon.
Regarding `CCCC(=O)Nc1cc(C(=O)N2C[C@H]3C[C@@]34C2=CC(=O)c2[nH]cc(C)c24)n(COC)c1`, the TGI in the test with NCI-H226 lung was 5.18 µM; in the test with NCI-H522 lung, 0.261 µM and 0.117 µM; in the test on A498 renal, 1.7 µM and 0.758 µM; with OVCAR-4 ovarian, 4.76 µM and 0.626 µM; in the test with COLO 205 colon it was 1.14 µM and 0.261 µM; with 786-0 renal, 5.82 µM. The TGI is 50 µM and 18.8 µM with K-562 leukemia; 2.88 µM and 0.989 µM in the test with HS 578T breast; 3.37 µM and 2.29 µM in the test with EKVX NSCLC; 17.8 µM and 2.31 µM in the test on HCT-15 colon. Moreover, the GI50 is 0.0115 µM in the test with NCI-H522 lung; 0.22 µM in the test on A498 renal; 0.239 µM with OVCAR-4 ovarian; 0.119 µM in the test with COLO 205 colon; 0.0925 µM in the test on K-562 leukemia; 0.267 µM in the test with HS 578T breast. For the same molecule, the GI50 in the test on EKVX NSCLC was 0.421 µM; in the test with HCT-15 colon, 0.242 µM.
Take `S=c1ncc(-c2cncc(-c3cnc(=S)[nH]c3)n2)c[nH]1`: the TGI in the test on NCI-H226 lung, in the test with NCI-H522 lung, in the test with A498 renal, in the test on OVCAR-4 ovarian, in the test on COLO 205 colon and in the test with 786-0 renal was more than 100 µM in each case. Also, the TGI in the test on K-562 leukemia, in the test on HS 578T breast, in the test with EKVX NSCLC and in the test with HCT-15 colon was more than 100 µM in each case.
